From PMC13385394, “Cryo-EM Structure of the TRPC1/5 Heteromer Enables Design of Antidepressant and Anxiolytic Drug with Reduced Side Effects” (Nature Communications, 2026)
“And” between values parts separate entries of the source, which are not always exact repeats. Identical values can stand only once. Like-named read-outs stand apart in the source and are kept apart here.

Tests used:
TRPC1/4 heteromer = target: T1, TRPC1/4 heteromer (Homo sapiens, UniProt P48995+Q9UBN4); experiment: Whole-cell patch-clamp, inhibition of TRPC1/4 heteromer; type: cell-based; settings: read-out: IC50, TRPC1/4 heteromers
T1 construct: expressed in transfected cells
T1 sequence (P48995 whole entry, one chain of several): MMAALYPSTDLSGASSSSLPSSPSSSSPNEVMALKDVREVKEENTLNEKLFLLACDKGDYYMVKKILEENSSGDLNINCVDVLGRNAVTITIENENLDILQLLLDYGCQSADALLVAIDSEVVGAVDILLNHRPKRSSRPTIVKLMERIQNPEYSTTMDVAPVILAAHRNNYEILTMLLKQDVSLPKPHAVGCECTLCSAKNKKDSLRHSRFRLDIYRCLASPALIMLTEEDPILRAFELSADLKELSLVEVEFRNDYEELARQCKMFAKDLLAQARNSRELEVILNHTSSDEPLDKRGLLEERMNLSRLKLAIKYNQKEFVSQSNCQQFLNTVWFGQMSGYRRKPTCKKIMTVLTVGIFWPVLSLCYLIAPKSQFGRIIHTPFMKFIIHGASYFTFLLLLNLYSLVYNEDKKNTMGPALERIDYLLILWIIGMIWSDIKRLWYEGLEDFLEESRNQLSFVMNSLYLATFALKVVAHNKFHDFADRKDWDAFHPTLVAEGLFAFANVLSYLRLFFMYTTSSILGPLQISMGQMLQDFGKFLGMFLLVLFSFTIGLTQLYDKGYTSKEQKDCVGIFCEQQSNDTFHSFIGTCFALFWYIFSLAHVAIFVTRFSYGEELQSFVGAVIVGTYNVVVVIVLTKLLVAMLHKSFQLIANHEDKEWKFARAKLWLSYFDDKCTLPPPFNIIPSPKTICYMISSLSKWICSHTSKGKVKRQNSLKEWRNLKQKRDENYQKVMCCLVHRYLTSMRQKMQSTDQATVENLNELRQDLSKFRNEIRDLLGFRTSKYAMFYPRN

TRPC4 homomer = target: T2, TRPC4 homomer (Homo sapiens, UniProt Q9UBN4); experiment: Whole-cell patch-clamp, inhibition of TRPC4 homomer; type: cell-based; settings: read-out: IC50, TRPC4 homomers
T2 construct: expressed in transfected cells
T2 sequence (Q9UBN4 1-977): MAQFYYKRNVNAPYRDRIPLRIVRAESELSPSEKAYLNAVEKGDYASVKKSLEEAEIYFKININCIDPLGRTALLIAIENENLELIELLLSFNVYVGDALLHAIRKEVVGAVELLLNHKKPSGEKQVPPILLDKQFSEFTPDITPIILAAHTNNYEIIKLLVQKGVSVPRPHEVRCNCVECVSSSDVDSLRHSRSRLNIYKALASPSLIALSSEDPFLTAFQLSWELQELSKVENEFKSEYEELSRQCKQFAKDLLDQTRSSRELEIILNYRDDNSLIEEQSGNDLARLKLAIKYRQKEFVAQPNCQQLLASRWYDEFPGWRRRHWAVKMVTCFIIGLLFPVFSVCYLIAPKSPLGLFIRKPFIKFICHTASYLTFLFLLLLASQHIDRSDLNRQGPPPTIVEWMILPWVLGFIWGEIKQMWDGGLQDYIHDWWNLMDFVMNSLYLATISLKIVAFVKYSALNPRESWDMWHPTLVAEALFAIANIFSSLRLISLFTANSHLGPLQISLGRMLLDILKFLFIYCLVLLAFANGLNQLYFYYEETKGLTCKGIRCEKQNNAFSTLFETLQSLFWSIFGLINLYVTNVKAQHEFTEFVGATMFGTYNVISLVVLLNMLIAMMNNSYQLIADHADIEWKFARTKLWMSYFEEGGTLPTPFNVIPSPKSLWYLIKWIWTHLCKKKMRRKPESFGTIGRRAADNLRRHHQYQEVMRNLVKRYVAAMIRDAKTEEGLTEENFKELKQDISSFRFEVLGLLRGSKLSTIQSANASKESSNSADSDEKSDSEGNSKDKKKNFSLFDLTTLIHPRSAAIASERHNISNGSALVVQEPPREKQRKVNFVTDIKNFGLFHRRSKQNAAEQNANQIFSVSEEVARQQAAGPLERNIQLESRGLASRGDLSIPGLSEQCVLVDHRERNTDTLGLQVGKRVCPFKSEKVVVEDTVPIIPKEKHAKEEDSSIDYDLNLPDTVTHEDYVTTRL

TRPC3 homomer = target: T3, TRPC3 homomer (Homo sapiens, UniProt Q13507); experiment: Whole-cell patch-clamp, inhibition of TRPC3 homomer; type: cell-based
T3 construct: expressed in transfected cells
T3 sequence (Q13507 1-921): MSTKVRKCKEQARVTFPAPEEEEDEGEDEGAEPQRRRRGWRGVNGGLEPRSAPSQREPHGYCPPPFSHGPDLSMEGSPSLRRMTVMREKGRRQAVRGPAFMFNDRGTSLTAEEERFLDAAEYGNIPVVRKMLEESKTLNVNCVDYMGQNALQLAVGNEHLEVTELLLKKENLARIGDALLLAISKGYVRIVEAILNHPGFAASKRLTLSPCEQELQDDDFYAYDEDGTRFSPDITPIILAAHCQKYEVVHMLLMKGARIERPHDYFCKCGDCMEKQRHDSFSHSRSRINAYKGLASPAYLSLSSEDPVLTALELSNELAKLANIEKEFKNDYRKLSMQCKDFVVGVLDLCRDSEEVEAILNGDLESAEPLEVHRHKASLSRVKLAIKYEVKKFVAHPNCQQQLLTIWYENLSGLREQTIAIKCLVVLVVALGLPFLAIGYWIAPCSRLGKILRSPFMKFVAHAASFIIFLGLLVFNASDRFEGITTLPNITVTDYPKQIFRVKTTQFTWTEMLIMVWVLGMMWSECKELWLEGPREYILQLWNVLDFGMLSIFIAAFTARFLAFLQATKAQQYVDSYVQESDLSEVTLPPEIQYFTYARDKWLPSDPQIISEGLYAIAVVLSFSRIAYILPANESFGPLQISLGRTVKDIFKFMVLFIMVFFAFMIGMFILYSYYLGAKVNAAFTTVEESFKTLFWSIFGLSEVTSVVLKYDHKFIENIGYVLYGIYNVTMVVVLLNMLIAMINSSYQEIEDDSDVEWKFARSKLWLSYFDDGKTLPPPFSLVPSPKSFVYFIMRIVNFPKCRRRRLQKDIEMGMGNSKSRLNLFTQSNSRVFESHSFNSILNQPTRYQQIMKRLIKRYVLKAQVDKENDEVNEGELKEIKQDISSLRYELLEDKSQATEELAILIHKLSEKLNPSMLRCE
Source text: Error bars represent the standard error of the mean (SEM, n = 6 independent
Error bars represent the standard error of the
110 mean (SEM, n = 5 independent cells).

[1] = Pharmacokinetics in mouse after p.o. and i.v. administration; type: in vivo; settings: for AUC(0-inf): read-out: AUCINF_obs; for clearance: read-out: CL_obs; for MRT inf: read-out: MRTINF_obs
[2] = C57BL/6J, mouse, in vivo, iv, 2 mg/kg, mouse 2mg/kg i.v., Mean
[3] = C57BL/6J, mouse, in vivo, iv, 2 mg/kg, mouse 2mg/kg i.v., individual animals 4-6
[4] = C57BL/6J, mouse, in vivo, po, 10 mg/kg, mouse 10mg/kg p.o., Mean
[5] = C57BL/6J, mouse, in vivo, po, 10 mg/kg, mouse 10mg/kg p.o., individual animals 1-3
[6] = mouse 2mg/kg i.v., individual animals 4-6, listed as JD03-02, 2 mg/kg
[7] = mouse 10mg/kg p.o., individual animals 1-3, listed as JD03-02, 10 mg/kg

CN(C)CCCCn1c(=O)c2c(nc(Oc3cccc(Cl)c3)n2Cc2ccc(Cl)cc2)n(C)c1=O [H08]
IC50 (TRPC1/4 heteromer): 6.68 nM and 6.7 nM
IC50 (TRPC4 homomer): 2380 nM
IC50 (TRPC3 homomer): > 10000 nM
inhibition of TRPC3 (TRPC3 homomer; 10 μM): no more than 40%
Tmax ([1]; C57BL/6J, in vivo, po, mouse 10mg/kg p.o., Mean): 1 h
AUC(0-t) [1, 2]: 478 ng·h/mL
half-life [1, 2]: 3.09 h
AUC(0-inf) [1, 2]: 519 ng·h/mL
clearance [1, 2]: 65.9 mL/min/kg
MRT inf [1, 2]: 3.94 h
AUC(0-t) [1, 3]: 385 ng·h/mL
half-life [1, 3]: 3.52 h
AUC(0-inf) [1, 3]: 469 ng·h/mL
clearance [1, 3]: 71 mL/min/kg
MRT inf [1, 3]: 4.46 h
AUC(0-t) [1, 4]: 1190 ng·h/mL
half-life [1, 4]: 2.9 h
AUC(0-inf) [1, 4]: 1220 ng·h/mL
Cmax ([1]; C57BL/6J, mouse, in vivo, po, 10 mg/kg, mouse 10mg/kg p.o., Mean, read-out: Cmax): 201 ng/mL
MRT inf [1, 4]: 5.27 h
half-life [1, 5]: 2.86 h
AUC(0-inf) [1, 5]: 1300 ng·h/mL
Cmax ([1]; C57BL/6J, mouse, in vivo, po, 10 mg/kg, mouse 10mg/kg p.o., individual animals 1-3, read-out: Cmax): 256 ng/mL
MRT inf [1, 5]: 4.73 h
Kp ([1]; brain and heart plasma, po, 10 mg/kg, mouse p.o., read-out: AUClast brain/AUClast heart plasma (brain-to-plasma ratio, B/P)): 0.67
Kp at 4 h ([1]; brain and heart plasma, po, 10 mg/kg, mouse p.o., read-out: Clast brain/Cmax heart plasma): 0.83
bioavailability ([1]; in vivo, oral, mouse 10mg/kg p.o. vs 2mg/kg i.v., read-out: F (oral bioavailability)): 49.8%
Vss_obs ([1]; mouse 2mg/kg i.v., Mean): 15.296 L/kg
AUCINF_obs [1, 6]: 447 ng·h/mL and 640 ng·h/mL
AUClast [1, 6]: 416 ng·h/mL and 634 ng·h/mL
CL_obs [1, 6]: 74.6 mL/min/kg and 52.1 mL/min/kg
MRTINF_obs [1, 6]: 2.895 h and 4.460 h
T1/2 [1, 6]: 2.06 h and 3.69 h
Vss_obs [1, 6]: 18.984 L/kg and 12.955 L/kg and 13.949 L/kg
AUCINF_obs [1, 7]: 1549 ng·h/mL and 800 ng·h/mL
AUClast [1, 7]: 1294 ng·h/mL and 1532 ng·h/mL and 746 ng·h/mL
Cmax [1, 7]: 205 ng/mL and 143 ng/mL
MRTINF_obs [1, 7]: 6.50 h and 4.58 h
T1/2 [1, 7]: 3.35 h and 2.48 h
AUClast ([1]; mouse p.o., brain): 524 ng·h/g
Cmax ([1]; mouse, brain, po, 10 mg/kg, mouse p.o., brain, read-out: Cmax): 265 ng/g
concentration at 4 h ([1]; mouse, brain, single 10 mg/kg oral dose, at 4 hours): ~513 nM
AUC(0-t) ([1]; mouse, heart plasma, po, 10 mg/kg, mouse p.o.): 778 ng·h/mL
Cmax ([1]; mouse, heart plasma, po, 10 mg/kg, mouse p.o., heart plasma, read-out: Cmax): 318 ng/mL
AUC(0-t) ([1]; mouse, portal vein plasma, po, 10 mg/kg, mouse p.o.): 1330 ng·h/mL
Cmax ([1]; mouse, portal vein plasma, po, 10 mg/kg, mouse p.o., portal vein plasma, read-out: Cmax): 493 ng/mL
Tmax ([1]; po, 10 mg/kg, mouse p.o., brain): 4 h
Tmax ([1]; po, 10 mg/kg, mouse p.o., heart plasma): 4 h
Tmax ([1]; po, 10 mg/kg, mouse p.o., portal vein plasma): 0.25 h
